One block for each molecule: values may come before it.
Columns and labels:
[1] = system: Cryptosporidium parvum; assay: Antimicrobial activity against Cryptosporidium parvum; format: functional, organism-based
[2] = system: Trypanosoma brucei; assay: Antimicrobial activity against Trypanosoma brucei; format: functional, organism-based
[3] = system: Trypanosoma cruzi; assay: Antimicrobial activity against Trypanosoma cruzi; format: functional, organism-based; conditions: Trypanosoma cruzi
[4] = system: Plasmodium falciparum; assay: Antimicrobial activity against Plasmodium falciparum; format: functional, organism-based
[5] = system: Toxoplasma gondii; assay: Antimicrobial activity against Toxoplasma gondii; format: functional, organism-based
[6] = system: Leishmania mexicana; assay: Antimicrobial activity against Leishmania mexicana; format: functional, organism-based
[7] = system: Leishmania; assay: Antimicrobial activity against Leishmania; format: functional
[8] = system: Leishmania major; assay: Antimicrobial activity against Leishmania major; format: functional, organism-based
[9] = system: Leishmania amazonensis; assay: Antimicrobial activity against Leishmania amazonensis; format: functional, organism-based
[10] = system: Leishmania donovani; assay: Antimicrobial activity against Leishmania donovani; format: functional, organism-based

Compound: COc1ccc(OC)c(Cc2sc3nc(N)nc(N)c3c2C)c1
IC50 [1]: 1 µM

Compound: Cn1c2nc3ccccc3c-2cc2cc(Cl)ccc21
IC50 [2]: 1 µM

Compound: O=[N+]([O-])c1cccc(Sc2cc3ccccc3[nH]2)c1
IC50 ([5]; Toxoplasma gondii): 2 µM

Compound: c1ccc2cc(Sc3cc4ccccc4[nH]3)ccc2c1
IC50 ([5]; Toxoplasma gondii): 4 µM

Compound: COc1ccc(Sc2cc3ccccc3[nH]2)cc1
IC50 ([5]; Toxoplasma gondii): 17 µM

Compound: [O-][S+](c1ccccc1)c1cc2ccccc2[nH]1 (centres undefined)
IC50 ([5]; Toxoplasma gondii): 50 µM

Compound: N=C(N)c1cccc(C(=N)N)c1-c1cc2ccccc2[nH]1
IC50 [6]: 3 µM

Compound: Nc1nc(N)c2nc(Cc3ccc(Cl)c(Cl)c3)c(Cc3ccc(Cl)c(Cl)c3)nc2n1
IC50 [1]: 4 µM

Compound: NCCCC12CC3CC(CC(C3)C1)C2
IC50 [2]: 1 µM

Compound: CNC12CC3CC(C1)CC(C(C)C)(C3)C2
IC50 [2]: 6 µM

Compound: CCCC1(N)CC(C)(C)CC(C)(C)C1
IC50 [2]: 6 µM

Compound: CCCC1(CCC)CC(C)(C)CC(C)(N)C1 (centres undefined)
IC50 [2]: 1 µM

Compound: Cn1c2nc3ccccc3c-2cc2ccc(C(F)(F)F)cc21
IC50 [3]: 32 µM
IC50 [4]: 16 µM
IC50 [2]: 17 µM

Compound: COc1cc(Cc2csc3nc(N)nc(N)c23)c(Br)c(OC)c1OC
IC50 [1]: 3 µM

Compound: NC(=O)c1nnn(Cc2cc(Cl)c(C(=O)C34CC5CC(CC(C5)C3)C4)c(Cl)c2)c1N
IC50 ([5]; Toxoplasma gondii): 15 µM

Compound: c1ccc(Sc2cc3ccccc3[nH]2)cc1
IC50 ([5]; Toxoplasma gondii): 1 µM

Compound: CCC(=O)N1CCCCC1[C@](C)(O)[C@H]1CC[C@H]2[C@@H]3CC[C@H]4C[C@@H](O)CC[C@]4(C)[C@H]3CC[C@@]21C (some centres undefined)
IC50 [3]: 65 µM
IC50 [8]: 54 µM

Compound: COc1cc(Cc2sc3nc(N)nc(N)c3c2C)c(Br)c(OC)c1OC
IC50 [1]: 2 µM

Compound: CSc1ccc2c(c1)cc1c3ccccc3nc-1n2C
IC50 [2]: 1 µM

Compound: Cn1c2nc3ccccc3c-2cc2ccc(Cl)cc21
IC50 [3]: 17 µM
IC50 [4]: 5 µM
IC50 [2]: 9 µM

Compound: N[C@@H]1[C@H]2CN(c3nc4c(cc3F)c(=O)c(C(=O)O)cn4-c3ccc(F)cc3F)C[C@@H]12 (stereo in doubt; form 1) [TROVAFLOXACIN]
IC50 ([5]; Toxoplasma gondii): 3 µM

Compound: N[C@@H]1[C@H]2CN(c3nc4c(cc3F)c(=O)c(C(=O)O)cn4-c3ccc(F)cc3F)C[C@@H]12 (stereo in doubt; form 2) [TROVAFLOXACIN]
IC50 [5]: 2 µM

Compound: C[C@@H]1[C@@H]2[C@@H](N)[C@@H]2CN1c1nc2c(cc1F)c(=O)c(C(=O)O)cn2-c1ccc(F)cc1F [TROVAFLOXACIN1]
IC50 ([5]; Toxoplasma gondii): 1 µM

Compound: CN[C@H]1[C@@H]2CN(c3nc4c(cc3F)c(=O)c(C(=O)O)cn4-c3ccc(F)cc3F)C[C@@H]21 [TROVAFLOXACIN2]
IC50 ([5]; Toxoplasma gondii): 1 µM

Compound: Cc1c(F)c(N2C[C@@H]3[C@@H](N)[C@@H]3C2)nc2c1c(=O)c(C(=O)O)cn2-c1ccc(F)cc1F [TROVAFLOXACIN3]
IC50 ([5]; Toxoplasma gondii): 1 µM

Compound: N[C@@H]1[C@H]2CN(c3nc4c(cc3F)c(=O)c(C(=O)O)cn4C3CC3)C[C@@H]12 [TROVAFLOXACIN4]
IC50 ([5]; Toxoplasma gondii): 2 µM

Compound: N[C@@H]1[C@H]2CN(c3cc4c(cc3F)c(=O)c(C(=O)O)cn4-c3ccc(F)cc3F)C[C@@H]12 [TROVAFLOXACIN6]
IC50 ([5]; Toxoplasma gondii): 3 µM

Compound: C[C@@H]1[C@@H]2[C@@H](CN)[C@@H]2CN1c1nc2c(cc1F)c(=O)c(C(=O)O)cn2-c1ccc(F)cc1F [TROVAFLOXACIN7]
IC50 ([5]; Toxoplasma gondii): 3 µM

Compound: NC12CC1CN(c1nc3c(cc1F)c(=O)c(C(=O)O)cn3-c1ccc(F)cc1F)C2 (centres undefined) [TROVAFLOXACIN8]
IC50 ([5]; Toxoplasma gondii): 7 µM

Compound: NC[C@@H]1[C@H]2CN(c3nc4c(cc3F)c(=O)c(C(=O)O)cn4C3CC3)C[C@@H]12 [TROVAFLOXACIN9]
IC50 ([5]; Toxoplasma gondii): 12 µM

Compound: NCC12CC1CN(c1nc3c(cc1F)c(=O)c(C(=O)O)cn3C1CC1)C2 (centres undefined) [TROVAFLOXACIN10]
IC50 ([5]; Toxoplasma gondii): 12 µM

Compound: NC[C@@H]1[C@H]2CN(c3nc4c(cc3F)c(=O)c(C(=O)O)cn4-c3ccc(F)cc3F)C[C@@H]12 [TROVAFLOXACIN11]
IC50 ([5]; Toxoplasma gondii): 9 µM

Compound: C[C@H]1[C@H](C)CC[C@]2(C(=O)O)CC[C@]3(C)C(=CC[C@@H]4[C@@]5(C)CC[C@H](O)C(C)(C)[C@@H]5CC[C@]43C)[C@H]12 [URSOLIC ACID]
IC50 ([5]; Toxoplasma gondii): 1 µM

Other lines, results leading:

IC50 [2]: 1 µM
Compound: COc1cccc2c1cc1c3ccccc3nc-1n2C

IC50 [3]: 32 µM
IC50 [2]: 32 µM
Compound: Cn1c2nc3ccc(C#N)cc3c-2cc2cc(C(F)(F)F)ccc21

IC50 [3]: 32 µM
IC50 [4]: 32 µM
IC50 [2]: 32 µM
Compound: Fc1ccc2[nH]c3nc4ccccc4c-3cc2c1

IC50 [3]: 32 µM
IC50 [4]: 32 µM
IC50 [2]: 32 µM
Compound: Clc1ccc2[nH]c3nc4ccccc4c-3cc2c1

IC50 [2]: 32 µM
Compound: Clc1cc(Cl)c2[nH]c3nc4ccccc4c-3cc2c1

IC50 [7]: 34 µM
Compound: C(=N\Nc1ccccc1)/c1ccc(N2CCN(c3ccc(/C=N/Nc4ccccc4)cc3)CC2)cc1

IC50 [1]: 1 µM
Compound: Nc1nc(N)c2nc(Cc3ccc(Cl)cc3)c(Cc3ccc(Cl)cc3)nc2n1

IC50 [1]: 1 µM
Compound: Nc1nc(N)c2nc(CN3c4ccccc4CC4C=CC=CC43)cnc2n1 (centres undefined)

IC50 [1]: 1 µM
Compound: Nc1nc(N)c2nc(CN3c4ccccc4SC4C=CC=CC43)cnc2n1 (centres undefined)

IC50 [1]: 1 µM
Compound: Nc1nc(N)c2cc(CN3c4ccccc4C=CC4C=CC=CC43)cnc2n1 (centres undefined)

IC50 [2]: 2 µM
Compound: CCCCC12CC3CC(C1)CC(NC)(C3)C2

IC50 [2]: 2 µM
Compound: CCCC1(C)CC(C)(C)CC(C)(N)C1 (centres undefined)

IC50 [2]: 3 µM
Compound: CCCC1CC(C)(C)CC(C)(N)C1 (centres undefined)

IC50 [2]: 6 µM
Compound: CCNC1(C)CC(C)(C)CC(C)(C)C1

IC50 [1]: 1 µM
Compound: CCCC(C)NC(=O)c1ccc(N(C)Cc2cnc3nc(N)nc(N)c3n2)cc1 (centres undefined)

IC50 [1]: 2 µM
Compound: CN(Cc1cnc2nc(N)nc(N)c2n1)c1ccc(C(=O)NC(CO)CCO)cc1 (centres undefined)

IC50 [3]: 32 µM
IC50 [4]: 30 µM
IC50 [2]: 27 µM
Compound: Cn1c2nc3ccccc3c-2cc2ccc(Br)cc21

IC50 [1]: 1 µM
Compound: Nc1nc(N)c2cc(/C=C/c3ccccc3)ccc2n1

IC50 [1]: 30 µM
Compound: Nc1nc(N)c2c(n1)-c1ccsc1CC2

IC50 [1]: 3 µM
Compound: COc1cc(CN2CCc3nc(N)nc(N)c3C2)c(Br)c(OC)c1OC

IC50 [3]: 1 µM
IC50 [8]: 12 µM
IC50 [9]: 1 µM
Compound: C[C@]12CC[C@H](O)C[C@@H]1CC[C@@H]1[C@@H]2CC[C@@]2(C)[C@H]1CC[C@@H]2[C@@](C)(O)c1ccncc1

IC50 [3]: 1 µM
IC50 [8]: 8 µM
IC50 [9]: 1 µM
Compound: C[C@]12CC[C@H](O)C[C@@H]1CC[C@@H]1[C@@H]2CC[C@@]2(C)[C@H]1CC[C@@H]2[C@@](C)(O)c1ccncc1Cl

IC50 [3]: 23 µM
IC50 [8]: 13 µM
Compound: C[C@]12CC[C@H](O)C[C@@H]1CC[C@@H]1[C@@H]2CC[C@@]2(C)[C@H]1CC[C@@H]2[C@@](C)(O)C1CCCNC1 (some centres undefined)

IC50 [3]: 1 µM
IC50 [8]: 100 µM
IC50 [9]: 3 µM
Compound: C[C@]12CC[C@H](O)C[C@@H]1CC[C@@H]1[C@@H]2CC[C@@]2(C)[C@H]1CC[C@@H]2[C@@](C)(O)c1ccccn1

IC50 [3]: 50 µM
IC50 [8]: 100 µM
Compound: C[C@]12CC[C@H](O)C[C@@H]1CC[C@@H]1[C@@H]2CC[C@@]2(C)[C@H]1CC[C@@H]2[C@@](C)(O)c1cccnc1

IC50 [1]: 5 µM
Compound: COc1cc(CCc2cc3c(N)nc(N)nc3s2)c(Br)c(OC)c1OC

IC50 [4]: 1 µM
IC50 [7]: 100 µM
Compound: CN1CCN(C)C1c1ccc(N2CCN(c3ccc(C4N(C)CCN4C)cc3)CC2)cc1

IC50 [1]: 2 µM
Compound: COc1cc(Cc2sc3nc(N)nc(N)c3c2C)cc(OC)c1OC

IC50 [4]: 32 µM
IC50 [2]: 32 µM
Compound: Cn1c2nc3ccc(C#N)cc3c-2cc2ccccc21

IC50 [1]: 1 µM
Compound: COc1ccc(OC)c(-c2sc3nc(N)nc(N)c3c2C)c1

IC50 [4]: 32 µM
IC50 [2]: 32 µM
Compound: COc1ccc2[nH]c3nc4ccccc4c-3cc2c1

IC50 [1]: 3 µM
Compound: COc1cccc2nc(N)nc(N)c12

IC50 [2]: 1 µM
Compound: Cn1c2nc3ccccc3c-2cc2cc([N+](=O)[O-])ccc21

IC50 [1]: 1 µM
Compound: COc1ccc(OC)c(NCc2ccc3nc(N)nc(N)c3n2)c1

IC50 [1]: 9 µM
Compound: CCC1CCc2nc(N)nc(N)c2C1 (centres undefined)

IC50 [1]: 2 µM
Compound: Nc1nc(N)c2c(n1)CCC(c1ccccc1)C2 (centres undefined)

IC50 [1]: 1 µM
Compound: Nc1nc(N)c2c(n1)CCC(Cc1ccsc1)C2 (centres undefined)

IC50 [8]: 14 µM
Compound: C=CC(C)(C)c1cc(/C=C/C(=O)c2ccc(O)cc2)c(OC)cc1O [LICOAGROCHACONE A]

IC50 [10]: 1 µM
IC50 [6]: 1 µM
Compound: N=C(N)c1ccc(OCCCCCOc2ccc(C(=N)N)cc2)cc1 [PENTAMIDINE]

IC50 [6]: 10 µM
Compound: N=C(N)c1ccc(OCCCOc2ccc(C(=N)N)cc2)cc1 [PROPAMIDINE]

IC50 [6]: 9 µM
Compound: N=C(N)c1ccc(/C=C/c2ccc(C(=N)N)cc2)cc1 [STILBAMIDINE]

IC50 [1]: 4 µM
Compound: COc1cc(Cc2cnc(N)nc2N)cc(OC)c1OC [TRIMETHOPRIM]

Reference: ChEMBL document CHEMBL1212812, “Multi-target spectral moment QSAR versus ANN for antiparasitic drugs against different parasite species” (Bioorg Med Chem, 2010)
